Assay results from US20160175318A1, “COMPOSITIONS COMPRISING ANTIBACTERIAL AGENT AND TAZOBACTAM” (WOCKHARDT LIMITED, priority 2013, published 2016).
Where two headings read alike, the source gives them in different places.

Experiments:
Format in all cases: cell-based
E. cloacae M-20 = assay: MIC by agar dilution (CLSI) against highly resistant ESBL strain; conditions: E. cloacae M-20
Experimental: (§1) The results on activity of cefepime and other cephalosporin antibacterial agents in combination with tazobactam against highly resistant ESBL strains are given Table 1. In a typical study, overnight grown bacterial cultures were diluted appropriately and inoculated on the agar media containing doubling dilutions of the antibiotic. Observation for growth or no growth was performed after 16-20 h of incubation at 35±2° C. in ambient air. The overall procedure was performed as per Clinical and Laboratory Standards Institute (CLSI) recommendations. This experimental was followed for Examples 2-4 and 6 below (Table 2-4 and 7).

E. coli 7MP [1] = assay: as above; conditions: E. coli 7MP
Experimental: as §1

E. coli B-89 [2] = assay: as above; conditions: E. coli B-89
Experimental: as §1

E. coli M50 [3] = assay: as above
Experimental: as §1

K. pneumoniae M150 = assay: as above; conditions: Klebsiella pneumoniae, M150, K. pneumoniae M150, read-out: MIC
Experimental: as §1

E. coli 7MP [4] = assay: Quantitative drug diffusion assay (disc, zone of inhibition, CLSI); parameters: key to Interpretation of zone as per CLSI recommendations: R: Resistant; I: Intermediate; S: Sensitive (Interpretation as per CLSI recommendations, 2010)
Source text: (§2) Activity of cefepime in combination with tazobactam and various penicillins in combination with respective ESBL inhibitors was also investigated against highly resistant ESBL strains in quantitative drug diffusion assay performed as per CLSI recommendations (Clinical and Laboratory Standards Institute (CLSI), performance Standards for Antimicrobial Susceptibility Testing, 20th Informational Supplement, M 100-S20, Volume 30, No. 1, 2010).
(§3) In a typical study, overnight grown bacterial cultures after appropriate dilution were seed inoculated in the molten, cooled agar media and plates poured. Antibiotics containing 6 mm diameter discs were place on the top of the agar surface. Zone of inhibition based observation was performed after 16-18 h of incubation at 35±2° C. in ambient air. The overall procedure was performed as per CLSI recommendations (Table 5 and 6). These assays are routinely used in determining possibility of treating a particular infection using antibiotic and/or their combinations. For example, in case of treating an infection caused by E. coli (M138) using Augmentin® [commercially available combination: Amoxicillin (500 mg)+Clavulanic acid (125 mg)], the zone inhibition values need to be in the sensitive (S) range.

E. coli B-123 = assay: as above; parameters: key to Interpretation of zone as per CLSI recommendations: R: Resistant; I: Intermediate; S: Sensitive (Interpretation as per CLSI recommendations, 2010)
Source text: as §2, §3

E. coli B-89 [5] = assay: as above; parameters: key to Interpretation of zone as per CLSI recommendations: R: Resistant; I: Intermediate; S: Sensitive (Interpretation as per CLSI recommendations, 2010)
Source text: as §2, §3

E. coli M-138 = assay: as above; parameters: key to Interpretation of zone as per CLSI recommendations: R: Resistant; I: Intermediate; S: Sensitive (Interpretation as per CLSI recommendations, 2010)
Source text: as §2, §3

E. coli M50 [6] = assay: as above; parameters: key to Interpretation of zone as per CLSI recommendations: R: Resistant; I: Intermediate; S: Sensitive (Interpretation as per CLSI recommendations, 2010)
Source text: as §2, §3

E. coli S-112 = assay: as above; parameters: key to Interpretation of zone as per CLSI recommendations: R: Resistant; I: Intermediate; S: Sensitive (Interpretation as per CLSI recommendations, 2010)
Source text: as §2, §3

[7] = Enterobacter cloacae, M20, 20 h, Tazobactam 0 mcg (antibiotic alone), read-out: MIC
[8] = Escherichia coli, 7MP, 20 h, Tazobactam 0 mcg (antibiotic alone), read-out: MIC
[9] = Escherichia coli, B89, 20 h, Tazobactam 0 mcg (antibiotic alone), read-out: MIC
[10] = Escherichia coli, 20 h, Tazobactam 0 mcg (antibiotic alone), read-out: MIC
[11] = Tazobactam 0 mcg (antibiotic alone)
[12] = ESBL inhibitor 0 mcg (antibiotic alone)
[13] = Table 5, with Tazobactam 10 mcg
[14] = Table 6, with Tazobactam 10 mcg

CC1(C)S[C@@H]2[C@H](NC(=O)[C@H](N)c3ccccc3)C(=O)N2[C@H]1C(=O)O [Ampicillin]
MIC (E. cloacae M-20; with Tazobactam 4 mcg): >64 µg/mL
MIC (E. cloacae M-20; with Tazobactam 8 mcg): >64 µg/mL
MIC (E. cloacae M-20; [7]): > 128 µg/mL
MIC (E. coli 7MP [1]; with Tazobactam 4 mcg): >64 µg/mL
MIC (E. coli 7MP [1]; with Tazobactam 8 mcg): >64 µg/mL
MIC (E. coli 7MP [1]; [8]): > 128 µg/mL
MIC (E. coli B-89 [2]; with Tazobactam 4 mcg): >64 µg/mL
MIC (E. coli B-89 [2]; with Tazobactam 8 mcg): >64 µg/mL
MIC (E. coli B-89 [2]; [9]): > 128 µg/mL
MIC (E. coli M50 [3]; [10]): > 128 µg/mL
MIC (E. coli M50 [3]; with Tazobactam 4 mcg): >64 µg/mL
MIC (E. coli M50 [3]; with Tazobactam 8 mcg): >64 µg/mL
MIC (K. pneumoniae M150; [11]): > 128 µg/mL
MIC (K. pneumoniae M150; with Tazobactam 4 mcg): > 64 µg/mL
MIC (K. pneumoniae M150; with Tazobactam 8 mcg): > 64 µg/mL
Zone of Inhibition (E. coli 7MP [4]; [12]): Nil
Interpretation of zone as per CLSI recommendations (E. coli 7MP [4]; Table 5, ESBL inhibitor 0 mcg): (R)
Interpretation of zone as per CLSI recommendations (E. coli 7MP [4]; Table 5, with Sulbactam 10 mcg): (R)
Interpretation of zone as per CLSI recommendations (E. coli 7MP [4]; Table 6, ESBL inhibitor 0 mcg): (R)
Interpretation of zone as per CLSI recommendations (E. coli 7MP [4]; Table 6, with Sulbactam 10 mcg): (R)
Zone of Inhibition (E. coli 7MP [4]; with Sulbactam 10 mcg): Nil
Zone of Inhibition (E. coli B-123; [12]): Nil
Interpretation of zone as per CLSI recommendations (E. coli B-123; Table 5, ESBL inhibitor 0 mcg): (R)
Interpretation of zone as per CLSI recommendations (E. coli B-123; Table 5, with Sulbactam 10 mcg): (R)
Interpretation of zone as per CLSI recommendations (E. coli B-123; Table 6, ESBL inhibitor 0 mcg): (R)
Interpretation of zone as per CLSI recommendations (E. coli B-123; Table 6, with Sulbactam 10 mcg): (R)
Zone of Inhibition (E. coli B-123; with Sulbactam 10 mcg): Nil
Zone of Inhibition (E. coli B-89 [5]; [12]): Nil
Interpretation of zone as per CLSI recommendations (E. coli B-89 [5]; Table 5, ESBL inhibitor 0 mcg): (R)
Interpretation of zone as per CLSI recommendations (E. coli B-89 [5]; Table 5, with Sulbactam 10 mcg): (R)
Interpretation of zone as per CLSI recommendations (E. coli B-89 [5]; Table 6, ESBL inhibitor 0 mcg): (R)
Interpretation of zone as per CLSI recommendations (E. coli B-89 [5]; Table 6, with Sulbactam 10 mcg): (R)
Zone of Inhibition (E. coli B-89 [5]; with Sulbactam 10 mcg): Nil
Zone of Inhibition (E. coli M-138; [12]): Nil
Interpretation of zone as per CLSI recommendations (E. coli M-138; Table 5, ESBL inhibitor 0 mcg): (R)
Interpretation of zone as per CLSI recommendations (E. coli M-138; Table 5, with Sulbactam 10 mcg): (R)
Interpretation of zone as per CLSI recommendations (E. coli M-138; Table 6, ESBL inhibitor 0 mcg): (R)
Interpretation of zone as per CLSI recommendations (E. coli M-138; Table 6, with Sulbactam 10 mcg): (R)
Zone of Inhibition (E. coli M-138; with Sulbactam 10 mcg): Nil
Zone of Inhibition (E. coli M50 [6]; [12]): Nil
Interpretation of zone as per CLSI recommendations (E. coli M50 [6]; Table 5, ESBL inhibitor 0 mcg): (R)
Interpretation of zone as per CLSI recommendations (E. coli M50 [6]; Table 5, with Sulbactam 10 mcg): (R)
Interpretation of zone as per CLSI recommendations (E. coli M50 [6]; Table 6, ESBL inhibitor 0 mcg): (R)
Interpretation of zone as per CLSI recommendations (E. coli M50 [6]; Table 6, with Sulbactam 10 mcg): (R)
Zone of Inhibition (E. coli M50 [6]; with Sulbactam 10 mcg): Nil
Zone of Inhibition (E. coli S-112; [12]): Nil
Interpretation of zone as per CLSI recommendations (E. coli S-112; Table 5, ESBL inhibitor 0 mcg): (R)
Interpretation of zone as per CLSI recommendations (E. coli S-112; Table 5, with Sulbactam 10 mcg): (R)
Interpretation of zone as per CLSI recommendations (E. coli S-112; Table 6, ESBL inhibitor 0 mcg): (R)
Interpretation of zone as per CLSI recommendations (E. coli S-112; Table 6, with Sulbactam 10 mcg): (R)
Zone of Inhibition (E. coli S-112; with Sulbactam 10 mcg): Nil

CCN1CCN(C(=O)N[C@@H](C(=O)N[C@@H]2C(=O)N3[C@@H]2SC(C)(C)[C@@H]3C(=O)O)c2ccccc2)C(=O)C1=O [Piperacillin]
MIC (E. cloacae M-20; with Tazobactam 4 mcg): >64 µg/mL
MIC (E. cloacae M-20; with Tazobactam 8 mcg): >64 µg/mL
MIC (E. cloacae M-20; [7]): > 128 µg/mL
MIC (E. coli 7MP [1]; with Tazobactam 4 mcg): >64 µg/mL
MIC (E. coli 7MP [1]; with Tazobactam 8 mcg): >64 µg/mL
MIC (E. coli 7MP [1]; [8]): > 128 µg/mL
MIC (E. coli B-89 [2]; with Tazobactam 4 mcg): >64 µg/mL
MIC (E. coli B-89 [2]; with Tazobactam 8 mcg): >64 µg/mL
MIC (E. coli B-89 [2]; [9]): > 128 µg/mL
MIC (E. coli M50 [3]; [10]): > 128 µg/mL
MIC (E. coli M50 [3]; with Tazobactam 4 mcg): >64 µg/mL
MIC (E. coli M50 [3]; with Tazobactam 8 mcg): >64 µg/mL
MIC (K. pneumoniae M150; [11]): > 128 µg/mL
MIC (K. pneumoniae M150; with Tazobactam 4 mcg): > 64 µg/mL
MIC (K. pneumoniae M150; with Tazobactam 8 mcg): > 64 µg/mL
Zone of Inhibition (E. coli 7MP [4]; [12]): Nil
Interpretation of zone as per CLSI recommendations (E. coli 7MP [4]; Table 5, ESBL inhibitor 0 mcg): (R)
Interpretation of zone as per CLSI recommendations (E. coli 7MP [4]; [13]): (R)
Interpretation of zone as per CLSI recommendations (E. coli 7MP [4]; Table 6, ESBL inhibitor 0 mcg): (R)
Interpretation of zone as per CLSI recommendations (E. coli 7MP [4]; [14]): (R)
Zone of Inhibition (E. coli 7MP [4]; with Tazobactam 10 mcg): 13.5 mm
Zone of Inhibition (E. coli B-123; [12]): Nil
Interpretation of zone as per CLSI recommendations (E. coli B-123; Table 5, ESBL inhibitor 0 mcg): (R)
Interpretation of zone as per CLSI recommendations (E. coli B-123; [13]): (R)
Interpretation of zone as per CLSI recommendations (E. coli B-123; Table 6, ESBL inhibitor 0 mcg): (R)
Interpretation of zone as per CLSI recommendations (E. coli B-123; [14]): (R)
Zone of Inhibition (E. coli B-123; with Tazobactam 10 mcg): 13.5 mm
Zone of Inhibition (E. coli B-89 [5]; [12]): Nil
Interpretation of zone as per CLSI recommendations (E. coli B-89 [5]; Table 5, ESBL inhibitor 0 mcg): (R)
Interpretation of zone as per CLSI recommendations (E. coli B-89 [5]; [13]): (R)
Interpretation of zone as per CLSI recommendations (E. coli B-89 [5]; Table 6, ESBL inhibitor 0 mcg): (R)
Interpretation of zone as per CLSI recommendations (E. coli B-89 [5]; [14]): (R)
Zone of Inhibition (E. coli B-89 [5]; with Tazobactam 10 mcg): 15 mm
Zone of Inhibition (E. coli M-138; [12]): Nil
Interpretation of zone as per CLSI recommendations (E. coli M-138; Table 5, ESBL inhibitor 0 mcg): (R)
Interpretation of zone as per CLSI recommendations (E. coli M-138; [13]): (R)
Interpretation of zone as per CLSI recommendations (E. coli M-138; Table 6, ESBL inhibitor 0 mcg): (R)
Interpretation of zone as per CLSI recommendations (E. coli M-138; [14]): (R)
Zone of Inhibition (E. coli M-138; with Tazobactam 10 mcg): 15.5 mm
Zone of Inhibition (E. coli M50 [6]; [12]): Nil
Interpretation of zone as per CLSI recommendations (E. coli M50 [6]; Table 5, ESBL inhibitor 0 mcg): (R)
Interpretation of zone as per CLSI recommendations (E. coli M50 [6]; [13]): (R)
Interpretation of zone as per CLSI recommendations (E. coli M50 [6]; Table 6, ESBL inhibitor 0 mcg): (R)
Interpretation of zone as per CLSI recommendations (E. coli M50 [6]; [14]): (R)
Zone of Inhibition (E. coli M50 [6]; with Tazobactam 10 mcg): 17 mm
Zone of Inhibition (E. coli S-112; [12]): Nil
Interpretation of zone as per CLSI recommendations (E. coli S-112; Table 5, ESBL inhibitor 0 mcg): (R)
Interpretation of zone as per CLSI recommendations (E. coli S-112; [13]): (R)
Interpretation of zone as per CLSI recommendations (E. coli S-112; Table 6, ESBL inhibitor 0 mcg): (R)
Interpretation of zone as per CLSI recommendations (E. coli S-112; [14]): (R)
Zone of Inhibition (E. coli S-112; with Tazobactam 10 mcg): 14 mm
